# Source: US3932633A, “Novel o-triazenobenzamides, in treating aggressive behavior” (Uniroyal Inc., priority 1974, dated 1976)
# System: isolation-induced fighting in mice
# Assay: Isolated fighting mouse (IFM) test / isolated mouse aggression
# Assay type: in vivo
# Settings: po, 30 mg/kg, per os, read-out: IFM % protected
row,SMILES,responders at 30 mg/kg
1,CCNC(=O)c1ccccc1N=NNc1nc(C)c(C(=O)NCc2ccccc2)s1 [Example 30],60%

# System: dihydroxyphenylalanine-induced fighting behavior in mice
# Assay: Dihydroxyphenylalanine (DOPA) fighting test
# Assay type: in vivo, mouse
# Settings: 200 mg/kg d1-DOPA; pargyline 80 mg/kg, Example 6 100 mg/kg, chlorpromazine 5 mg/kg, chlordiazepoxide 15 mg/kg
# Method: It is well known that when monoamine oxidase inhibitors are administered prior to the administration of d1-DOPA, which is a noradrenaline precursor, convulsions or excitation occur. In this study, the MAO inhibitor pargyline (80 mg/kg) was given 1, 2 and 4 hours prior to administering 200 mg/kg of d1-DOPA. […] Thus, in this procedure, none of the agents tested appears to be a MAO inhibitor.
row,SMILES,"excitation, salivation, jumping, and fighting with d1-DOPA"
1,C#CCN(C)Cc1ccccc1 [pargyline],"excitation, salivation, jumping, and fighting"

# System: isolation-induced fighting in mice
# Assay: Isolated fighting mouse (IFM) test / isolated mouse aggression
# Assay type: in vivo
# Settings: Mus musculus, ip; 30 mg/kg intraperitoneally; at least 40% protected = active
# Method: *IFM - Isolated fighting mouse test at a dose of 30 mg/kg
# intraperitoneally; those compounds which protected at least 40% of the
# Two models of aggression are used in the primary screening for neuroleptics, (1) isolation-induced fighting in mice (IFM), and (2) aggression induced in rats by destruction of the septal area (septal rat). Compounds are first submitted, however, to the neuropharmacological profile, a standard procedure (see, e.g., Samuel Irwin, Science, 136, 123 [1962]) employed in screening a compound to determine its usefulness as a central nervous system active compound. Those agents which cause depression over a wide dose range are then submitted to the first anti-aggression screen, the isolation-induced fighting mouse assay.
# The compound of Example 6 was compared with chlorpromazine and chlordiazepoxide for its anti-aggressive activity. Three models of experimentally-induced aggression in rodents were studied (R. D. Sofia, Life Science, 8: 705, 1969).
row,SMILES,responders at 30 mg/kg
1,Cc1ccc(NN=Nc2ccccc2C(N)=O)cc1C [Example 16],60%
2,NC(=O)c1ccccc1N=NNc1ccc(Cl)cc1 [Example 11],40%
3,COc1ccc([N+](=O)[O-])cc1NN=Nc1ccccc1C(N)=O [Example 33],100%
4,Cc1ccc(NN=Nc2ccccc2C(=O)Nc2ccccc2)cc1 [Example 32],60%
5,NC(=O)c1ccccc1N=NNc1cccc(Cl)c1 [Example 36],40%
6,Cc1nc(NN=Nc2ccccc2C(=O)N(C)C)sc1C(=O)NCc1ccccc1 [Example 31],60%
7,COc1ccccc1NN=Nc1ccccc1C(N)=O [Example 25],60%
8,CNC(=O)c1ccccc1N=NNc1ccc(C)cc1 [Example 26],100%
9,NC(=O)c1ccccc1N=NNc1cccc([N+](=O)[O-])c1 [Example 15],100%
10,Cc1cc(C)c(NC(=O)c2sc(NN=Nc3ccccc3C(N)=O)nc2C)c(C)c1 [Example 9],60%
11,Cc1nc(NN=Nc2ccccc2C(N)=O)sc1C(=O)Nc1ccccc1 [Example 18],60%
12,COC(=O)c1ccccc1NN=Nc1ccccc1C(N)=O [Example 10],80%
13,CNC(=O)c1ccccc1N=NNc1nc(C)c(C(=O)NCc2ccccc2)s1 [Example 29],100%
14,NC(=O)c1ccccc1N=NNc1ccccc1Cl [Example 35],80%
15,"CCn1c2ccccc2c2cc(NN=Nc3ccccc3C(N)=O)ccc21 [Example 4, 2-[3-(9-ethyl-3-carbazolyl)-2(or 1)-triazeno]-benzamide]",100%
16,"NC(=O)c1ccccc1N=NNc1nccs1 [Example 2, 2-[3-(2-thiazolyl)-2(or 1)-triazeno]-benzamide]",80%
17,"NC(=O)c1ccccc1N=NNc1ccccc1C(N)=O [Example 1, 2,2'-diazoaminobenzamide]",100%
18,Cc1c(Cl)cccc1NN=Nc1ccccc1C(N)=O [Example 39],40%

row,SMILES,responders at 30 mg/kg
1,NC(=O)c1ccccc1N=NNc1ccc([N+](=O)[O-])cc1 [Example 12],100%
2,"Cc1nc(NN=Nc2ccccc2C(N)=O)sc1C(=O)N1CCOCC1 [Example 5, 2-[3-(4-methyl-5-morpholinocarbonyl-2-thiazolyl)-2(or 1)-triazeno]-benzamide]",100%
3,COc1ccc(NN=Nc2ccccc2C(N)=O)cn1 [Example 22],100%
4,NC(=O)c1ccccc1N=NNc1ccc2ncccc2c1 [Example 20],40%
5,COc1ccc(NN=Nc2ccccc2C(N)=O)cc1 [Example 24],100%
6,CNC(=O)c1ccccc1N=NNc1ccc(C)c(Cl)c1 [Example 27],80%
7,CCCCNC(=O)c1ccccc1N=NNc1ccc(C)c(Cl)c1 [Example 28],60%
8,Cc1nc(NN=Nc2ccccc2C(N)=O)sc1C(=O)Nc1ccccc1Cl [Example 17],60%
9,CCOc1ccc(NN=Nc2ccccc2C(N)=O)cc1 [Example 38],40%
10,COc1ccc(Cl)cc1NN=Nc1ccccc1C(N)=O [Example 37],60%
11,COc1cc([N+](=O)[O-])c(C)cc1NN=Nc1ccccc1C(N)=O [Example 34],100%
12,NC(=O)c1ccccc1N=NNc1cccnc1 [Example 19],80%
13,"Cc1ccc(NN=Nc2ccccc2C(N)=O)cc1 [Example 8, 2-[3-p-tolyl-1(or 2)-triazeno]-benzamide]",100%
14,Cc1ccccc1NN=Nc1ccccc1C(N)=O [Example 13],100%
15,NC(=O)c1ccccc1N=NNc1cccnc1Cl [Example 21],40%
16,NC(=O)c1ccccc1N=NNc1cccc2c1C(=O)c1ccccc1C2=O [Example 23],40%
17,Cc1cccc(NN=Nc2ccccc2C(N)=O)c1 [Example 14],80%

# Same assay, conditions: Mus musculus, ip; i.p. administration; read-out: ED50 (IFM)
row,SMILES,ED50
1,COc1ccc([N+](=O)[O-])cc1NN=Nc1ccccc1C(N)=O [Example 33],14 mg/kg
2,COC(=O)c1ccccc1NN=Nc1ccccc1C(N)=O [Example 10],6 mg/kg
3,NC(=O)c1ccccc1N=NNc1ccccc1Cl [Example 35],5.2 mg/kg
4,"NC(=O)c1ccccc1N=NNc1nccs1 [Example 2, 2-[3-(2-thiazolyl)-2(or 1)-triazeno]-benzamide]",9.4 mg/kg
5,"Cc1nc(NN=Nc2ccccc2C(N)=O)sc1C(=O)N1CCOCC1 [Example 5, 2-[3-(4-methyl-5-morpholinocarbonyl-2-thiazolyl)-2(or 1)-triazeno]-benzamide]",6.7 mg/kg
6,COc1cc([N+](=O)[O-])c(C)cc1NN=Nc1ccccc1C(N)=O [Example 34],14.5 mg/kg
